The record followed here is patent US20250235499A1, “ANTI-OVARIAN CANCER PHARMACEUTICAL COMPOSITION AND ACTION TARGET THEREOF” (Zhejiang Chinese Medical University, priority 2024, published 2025).

Common to all, as to type: cell-based, human
In assay [1] the test system is SKOV3 ovarian cancer cells. Nature of the assay: Cell cycle by flow cytometry (PI) with MCM2 knockdown or overexpression. As to the method:
(§1) SKOV3 and Hey ovarian cancer cells in logarithmic growth phase were knocked down with MCM2 (Control group, sh-NC group, sh-MCM2 group) and overexpressed with MCM2 (Control group, OE-NC group, OE-MCM2 group). The original culture medium was discarded, washed with PBS buffer, and digested with 0.1% trypsin. A corresponding culture medium was added to prepare a cell suspension. Cells were counted using a hemocytometer and a cell concentration was quantified at 5×10^4 cells/mL. 1500 μL of each well was inoculated into a 6 well plate, with 3 parallel wells in each group, and incubated in a 37° C. incubator containing 5% CO2 for 24 hours. After the cultivation time was over, the six well plate was taken out and aspirated the original culture medium from the wells for later use. The PBS buffer was added to gently wash the cells three times. 500 μL of 0.1% trypsin was added to each well to wait for the cells to be blown off with a pipette, then the original culture medium from the wells was added to terminate digestion. A pipette was used to gently blow off all the cells on the wall of the six well plate. The cell suspension was aspirated, transferred to a centrifuge tube, and centrifuged at 4° C. and 1000 rpm for 5 minutes. The supernatant was discarded, and 1 mL of pre-cooled PBS buffer was added to gently resuspend the cells, and transferred to a 1.5 mL sterile centrifuge tube. The mixture was centrifuged at 4° C. and 1000 rpm for 5 minutes, the supernatant was discarded, and the bottom of the centrifuge tube was gently tapped to disperse the cells. 1 mL of pre-cooled 70% ethanol was added, blown and mixed well to form a cell suspension, and placed in a refrigerator at 4° C. for 24 hours. After fixation, a water bath kettle was opened in advance, the temperature was set to 37° C., the centrifugation was performed for 5 minutes at 4° C. and 1000 rpm, and the supernatant was discarded. 1 mL of pre-cooled PBS buffer was added and gently resuspended to wash the cells. The mixture was centrifuged at 4° C. and 1000 rpm for 5 minutes, the supernatant was discarded, and the bottom of the centrifuge tube was gently tapped to disperse the cells. 500 μL of PI staining working solution containing RNase was added to each cell sample to be tested, and placed in a 37° C. dark water bath for 30 minutes. A flow cytometer was used to detect red fluorescence at an excitation wavelength of 488 nm, while also measuring light scattering. A modfit 3.2 version was used for cell DNA cycle analysis.
(In general: A flow cytometer gives signals particle by particle.)

Assay [2] relates to Hey ovarian cancer cells. Described as above. As to the method: as §1
Assay [3] has as its system MCM2 protein in Hey cells. Nature of the assay: MCM2 protein expression in ovarian cancer cell after intervention. Conditions: 24 hours, 100 μmol/L CA, 6.25 μmol/L BDMC, compared to the Control group. As for the experimental part:
(§2) The effect of intervention on MCM2 protein expression in the SKOV3 and Hey ovarian cancer cells for 24 hours in the CA group using 100 μmol/L CA, the BDMC group using 6.25 μmol/L BDMC, and the CA+BDMC group using 100 μmol/L CA+6.25 μmol/L BDMC in Example 1 was shown in FIGS. 16A-16B, wherein A represented the expression of MCM2 protein in SKOV3 cells; B represented the expression of MCM2 protein in Hey cells compared to the Control group, #P<0.05, ##P<0.01; and compared with the CA+BDMC group, &P<0.05, &&P<0.01.

Assay [4] has as its system MCM2 protein in SKOV3 cells. The assay is described as above. Conditions: SKOV3, 24 hours, 100 μmol/L CA, 6.25 μmol/L BDMC; compared to the Control group. As to the method: as §2
The test system of assay [5] is SKOV3 ovarian cancer cells. Briefly: Colony formation with MCM2 knockdown or overexpression. As for the experimental part: (§3) SKOV3 and Hey ovarian cancer cells in logarithmic growth phase were knocked down with MCM2 (Control group, sh-NC group, sh-MCM2 group) and overexpressed with MCM2 (Control group, OE-NC group, OE-MCM2 group). The original culture medium was discarded, washed with PBS buffer, and digested with 0.1% trypsin. A corresponding culture medium was added to prepare a cell suspension. Cells were counted using a hemocytometer and a cell concentration was quantified at 10^3 cells/mL. 1500 μL of each well was inoculated into a 6 well plate, with 3 parallel wells in each group, and incubated in a 37° C. incubator containing 5% CO2 for 12 days. The medium was changed every three days. After the cultivation time was over, the six well plate was taken out, and the original culture medium was poured out. An appropriate amount of 4% paraformaldehyde was added to each well and fixed for 30 minutes. The plate was washed twice with a PBS buffer after pouring out the paraformaldehyde, an appropriate amount of 1% crystal violet solution was added for staining for 10 minutes, the crystal violet solution was poured out, and the plate was washed twice with PBS. Photos were taken, and the number of cell clones formed was counted. After knocking down MCM2 on the SKOV3 and Hey ovarian cancer cells and intervening with CA, BDMC, and combination administration, the results were shown in FIGS. 17A-17B. In FIGS. 17A-17B, A represented the formation of SKOV3 cell clones; and B represented the formation of Hey cell clones. Compared with the sh-NC group, #P<0.05, ##P<0.01; compared with the sh-NC+CA+BDMC group, &P<0.05, &&P<0.01; and ** P<0.01. In FIGS. 18A-18B, A represented the formation of SKOV3 cell clones; and B represented the formation of Hey cell clones. Compared with the OE-NC group, #P<0.05, ##P<0.01; compared with the OE-NC+CA+BDMC group, &P<0.05, &&P<0.01; and *P<0.05; and compared with the OE-MCM2+CA+BDMC group, ΔP<0.05, ΔΔP<0.01; and *P<0.05, ** P<0.01.

In assay [6] the test system is Hey ovarian cancer cells. The description is as above. As for the experimental part: as §3
Where [7] appears, read: SKOV3 OE-MCM2 cells (MCM2 overexpression), vs OE-MCM2 group.
[8] abbreviates: SKOV3 OE-NC cells (empty vector), vs OE-NC group.
Setting [9] is: SKOV3 sh-MCM2 cells (MCM2 knockdown), vs sh-MCM2 group.
Where [10] appears, read: SKOV3 sh-NC cells (empty vector), vs sh-NC group.
Setting [11] is: Hey OE-MCM2 cells (MCM2 overexpression), vs OE-MCM2 group.
The mark [12] stands for this setting: Hey OE-NC cells (empty vector), vs OE-NC group.
[13] abbreviates: Hey sh-MCM2 cells (MCM2 knockdown), vs sh-MCM2 group.
Where [14] appears, read: Hey sh-NC cells (empty vector), vs sh-NC group.

As to `COc1ccc(-c2coc3cc(O)ccc3c2=O)cc1O` [CA, calycosin], the “percentage of G0/G1 phase cells” value in assay [1] (setting [7]) is listed as “no significant change”; in assay [1] (setting [8]) it was “significantly increased”; in assay [1] (setting [9]), “no significant change”; in assay [1] (setting [10]), “significantly increased”; in the assay on Hey ovarian cancer cells [2] (setting [11]), “no significant change”; in the assay with Hey ovarian cancer cells [2] (setting [12]) it was “significantly increased”. The “percentage of G0/G1 phase cells” value with Hey ovarian cancer cells [2] (setting [13]) was “no significant change”; in the assay on Hey ovarian cancer cells [2] (setting [14]), “significantly increased”. The “expression of the MCM2 protein” value in assay [3] and in assay [4] was “significantly decreased” throughout. Further, the “number of plaques formed by cloning” value in assay [5] (setting [7]) was “no significant change”; in assay [5] (setting [8]), “significantly reduced”; in assay [5] (setting [9]), “no significant change”; in assay [5] (setting [10]) it was “significantly reduced”; with Hey ovarian cancer cells [6] (setting [11]) it was “no significant change”; in the assay on Hey ovarian cancer cells [6] (setting [12]), “significantly reduced”. Besides, the “number of plaques formed by cloning” value is reported as “no significant change” in the assay on Hey ovarian cancer cells [6] (setting [13]) and “significantly reduced” in the assay with Hey ovarian cancer cells [6] (setting [14]).
